The source made the active and inactive calls. The calls are words filed in the database; no cut-off is given here.
How the values were obtained:
[1] = Tmax in Sprague-Dawley rat brain at 10 mg/kg, po; type: ADME, organism-based
Cytochrome P450 2C9 = Cytochrome P450 2C9 (Homo sapiens, UniProt P11712); assay: Inhibition of CYP2C9 in human hepatocytes; type: ADME, cell-based, Hepatocyte
[2] = Terminal half life in human plasma at 4 mg, po; type: ADME, cell-free; conditions: read-out: beta t1/2 (converted)
[3] = Tmax in human plasma at 12 mg, po; type: ADME, cell-free
[4] = Cmax in human plasma at 2 mg, po; type: ADME, cell-free; parameters: route oral, dose 2 mg
[5] = Tmax in human plasma at 8 mg, po; type: ADME, cell-free
[6] = Genotoxicity in Salmonella typhimurium TA97 by Ames test; type: toxicity; conditions: salmonella enterica subsp. enterica serovar typhimurium
[7] = AUC (0 to t) in Sprague-Dawley rat plasma at 10 mg/kg, po; type: ADME, organism-based; parameters: dose 10 mg/kg
[8] = Clearance in Sprague-Dawley rat at 0.5 mg/kg, iv; type: ADME, organism-based; conditions: in vivo
[9] = Cardiotoxicity in Beagle dog assessed as effect on PR interval at 0.1 to 1 mg/kg; type: toxicity, organism-based, Canis lupus familiaris; conditions: in vivo, dose 0.1-1 mg/kg
[10] = Terminal half life in human plasma at 12 mg, po; type: ADME, cell-free; conditions: read-out: beta t1/2 (converted)
[11] = Induction of CYP3A4 expression in human hepatocytes at 10 uM; type: ADME, cell-based, Hepatocyte
[12] = Protein binding in dog plasma; type: ADME, cell-free, Canis lupus familiaris; conditions: read-out: PPB (converted)
[13] = Half life in Sprague-Dawley rat plasma at 10 mg/kg, po; type: ADME, organism-based
[14] = Cmax in human plasma at 8 mg, po; type: ADME, cell-free; parameters: route oral, dose 8 mg
Mus musculus [15] = assay: Cognitive enhancing effect in ig dosed APP/PS1 double mutant-transgenic mouse model assessed as increase in spontaneous alteration administered once daily by Y-maze test; type: functional, organism-based; conditions: dose 0.25-1 mg/kg
Mus musculus [16] = assay: Cognitive enhancing effect in mouse model of scopolamine-induced memory impairment assessed as reduction in number of errors at 1 to 2 mg/kg, IG QD for 3 days by channel water maze test; type: functional, organism-based; conditions: dose 1-2 mg/kg, time 3.0 day
[17] = Ratio of drug concentration in brain to plasma of Sprague-Dawley rat at 10 mg/kg, po; type: ADME, organism-based; conditions: read-out: BPR
[18] = Half life in Sprague-Dawley rat brain at 10 mg/kg, po; type: ADME, organism-based
[19] = AUC(0 to infinity) in Sprague-Dawley rat brain at 10 mg/kg, po; type: ADME, organism-based; parameters: route oral, time infinity, dose 10 mg/kg
[20] = Terminal half life in human plasma at 1 mg, po; type: ADME, cell-free; conditions: read-out: beta t1/2 (converted)
[21] = Oral bioavailability in Sprague-Dawley rat at 0.5 mg/kg; type: ADME, organism-based; conditions: in vivo
[22] = target: T1, Acetylcholinesterase (Mus musculus) (UniProt P21836); assay: Ex vivo inhibition of AChE in ICR mouse hippocampal homogenate at 2 mg/kg, ig using acetylthiocholine iodide as substrate measured after 30 to 240 mins by DTNB reagent based assay; type: functional, organism-based; conditions: time 30-240 min
T1 sequence (whole entry): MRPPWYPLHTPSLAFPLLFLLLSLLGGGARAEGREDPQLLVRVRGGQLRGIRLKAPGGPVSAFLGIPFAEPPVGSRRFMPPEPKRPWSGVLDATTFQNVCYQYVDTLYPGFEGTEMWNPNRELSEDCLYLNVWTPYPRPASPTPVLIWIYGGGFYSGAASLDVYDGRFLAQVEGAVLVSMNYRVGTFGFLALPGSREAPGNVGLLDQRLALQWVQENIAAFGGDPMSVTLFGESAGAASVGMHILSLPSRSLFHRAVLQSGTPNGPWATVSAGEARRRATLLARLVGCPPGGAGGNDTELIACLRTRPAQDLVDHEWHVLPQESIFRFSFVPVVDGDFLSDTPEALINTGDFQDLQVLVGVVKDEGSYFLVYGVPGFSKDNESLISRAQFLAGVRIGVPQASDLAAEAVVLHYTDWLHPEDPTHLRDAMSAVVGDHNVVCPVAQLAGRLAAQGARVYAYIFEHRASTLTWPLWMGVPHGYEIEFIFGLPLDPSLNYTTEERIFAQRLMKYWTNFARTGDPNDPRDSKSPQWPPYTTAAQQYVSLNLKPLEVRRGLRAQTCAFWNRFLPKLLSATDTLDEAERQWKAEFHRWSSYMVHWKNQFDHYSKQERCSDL

[23] = Genotoxicity in Salmonella typhimurium TA100 by Ames test; type: toxicity; conditions: salmonella enterica subsp. enterica serovar typhimurium
[24] = Half life in Beagle dog at 0.25 mg/kg, po; type: ADME, organism-based, Canis lupus familiaris; conditions: in vivo
[25] = Cmax in human plasma at 1 mg, po; type: ADME, cell-free; parameters: route oral, dose 1 mg
[26] = Mutagenecity against CHL cells; type: ADME, cell-based, Cricetulus griseus; conditions: chinese hamster
Cytochrome P450 2B6 = target: T2, Cytochrome P450 2B6 (Homo sapiens, UniProt P20813); assay: Inhibition of CYP2B6 in human hepatocytes; type: ADME, cell-based, Hepatocyte
T2 sequence (P20813 whole entry): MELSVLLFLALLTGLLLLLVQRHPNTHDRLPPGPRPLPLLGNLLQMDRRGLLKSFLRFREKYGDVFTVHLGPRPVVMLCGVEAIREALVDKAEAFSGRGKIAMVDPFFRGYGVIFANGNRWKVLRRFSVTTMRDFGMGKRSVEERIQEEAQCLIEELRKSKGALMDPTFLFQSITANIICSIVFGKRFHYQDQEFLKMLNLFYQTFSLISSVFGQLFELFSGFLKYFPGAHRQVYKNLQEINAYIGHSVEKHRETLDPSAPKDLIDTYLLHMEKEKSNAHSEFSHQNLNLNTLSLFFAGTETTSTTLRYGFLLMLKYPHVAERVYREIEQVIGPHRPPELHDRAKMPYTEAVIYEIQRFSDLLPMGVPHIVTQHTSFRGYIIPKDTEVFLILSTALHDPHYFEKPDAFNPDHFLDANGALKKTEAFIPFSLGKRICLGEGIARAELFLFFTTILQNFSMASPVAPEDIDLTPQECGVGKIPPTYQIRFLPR

[27] = Cmax in human plasma at 12 mg, po; type: ADME, cell-free; parameters: route oral, dose 12 mg
[28] = Genotoxicity in Salmonella typhimurium TA102 by Ames test; type: toxicity; conditions: salmonella enterica subsp. enterica serovar typhimurium
[29] = Toxicity in Beagle dog assessed as effect on blood pressure at 0.1 to 1 mg/kg; type: organism-based, Canis lupus familiaris; conditions: in vivo, dose 0.1-1 mg/kg
[30] = Genotoxicity in Salmonella typhimurium TA98 by Ames test; type: toxicity; conditions: salmonella enterica subsp. enterica serovar typhimurium
Rattus norvegicus = species on record: Rattus norvegicus; assay: Selectivity index, ratio of IC50 for rat serum BuChE using S-butyrylthiocholine iodide as substrate to IC50 for rat cortex homogenate acetylcholinesterase using acetylthiocholine iodide as substrate
Cytochrome P450 2C19 = Cytochrome P450 2C19 (Homo sapiens, UniProt P33261); assay: Inhibition of CYP2C19 in human hepatocytes; type: ADME, cell-based, Hepatocyte
Sequence of Cytochrome P450 2C19 (P33261 whole entry): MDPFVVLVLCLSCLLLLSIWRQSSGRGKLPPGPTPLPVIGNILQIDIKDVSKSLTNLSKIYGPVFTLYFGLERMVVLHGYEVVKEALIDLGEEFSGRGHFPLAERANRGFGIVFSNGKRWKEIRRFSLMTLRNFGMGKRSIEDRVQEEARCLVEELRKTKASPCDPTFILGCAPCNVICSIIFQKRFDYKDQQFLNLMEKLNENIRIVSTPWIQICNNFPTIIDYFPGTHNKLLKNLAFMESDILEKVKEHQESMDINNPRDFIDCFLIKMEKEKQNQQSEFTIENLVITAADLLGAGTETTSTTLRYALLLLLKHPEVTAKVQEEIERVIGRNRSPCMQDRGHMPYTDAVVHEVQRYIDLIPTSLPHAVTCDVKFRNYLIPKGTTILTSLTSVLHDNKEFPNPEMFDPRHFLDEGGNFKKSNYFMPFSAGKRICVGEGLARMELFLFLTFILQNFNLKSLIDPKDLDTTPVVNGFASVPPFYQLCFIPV

[31] = Genotoxicity in ICR mouse at 7.5 to 30 mg/kg, po administered once a day for 2 consecutive days by micronucleus test; type: toxicity, organism-based; conditions: in vivo, 48 h, dose 7.5-30 mg/kg, time 2 day
[32] = AUC (0 to infinity) in Sprague-Dawley rat at 0.5 mg/kg, iv; type: ADME, organism-based; parameters: time infinity, route intravenous, dose 0.5 mg/kg; conditions: in vivo
[33] = Tmax in human plasma at 4 mg, po; type: ADME, cell-free
[34] = Toxicity in Beagle dog assessed as effect on respiration at 0.1 to 1 mg/kg; type: organism-based, Canis lupus familiaris; conditions: in vivo, dose 0.1-1 mg/kg
[35] = MRT (0 to infinity) in Beagle dog at 0.25 mg/kg, iv; type: ADME, organism-based, Canis lupus familiaris; conditions: in vivo
[36] = Half life in Sprague-Dawley rat at 0.5 mg/kg, po; type: ADME, organism-based; conditions: in vivo

Sequence of Cytochrome P450 2C9 (P11712 whole entry): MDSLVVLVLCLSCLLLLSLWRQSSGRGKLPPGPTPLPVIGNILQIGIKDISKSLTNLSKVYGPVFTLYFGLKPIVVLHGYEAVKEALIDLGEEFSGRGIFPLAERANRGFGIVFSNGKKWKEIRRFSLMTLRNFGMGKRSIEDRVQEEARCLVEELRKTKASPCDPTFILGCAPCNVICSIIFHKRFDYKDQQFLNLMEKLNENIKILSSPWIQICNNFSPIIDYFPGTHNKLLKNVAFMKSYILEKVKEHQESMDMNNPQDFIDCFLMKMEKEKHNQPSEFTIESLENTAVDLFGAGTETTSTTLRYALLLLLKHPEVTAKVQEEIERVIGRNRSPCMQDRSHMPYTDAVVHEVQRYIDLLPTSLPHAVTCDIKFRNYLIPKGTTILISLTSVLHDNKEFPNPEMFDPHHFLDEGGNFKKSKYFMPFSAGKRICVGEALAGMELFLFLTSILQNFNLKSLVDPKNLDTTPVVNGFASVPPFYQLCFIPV

Q: What does the source list for `COc1cc2c(cc1OC)C(=O)C(CC1(F)CCN(Cc3ccccc3F)CC1)C2` (stereo not given)?
A: Tmax [1]: 0.5 h; IC50 (Cytochrome P450 2C9): 4.77 µM; half-life [2]: 30.8 h; Tmax [3]: 1.5 h; Cmax [4]: 2.43 ng/mL; Tmax [5]: 1.13 h; Activity [6]: Non-Toxic; AUC(0-t) [7]: 1080 ng·h/mL; clearance [8]: 23.7 mL/min/kg; Activity [9]: Non-Toxic; half-life [10]: 32.1 h; Activity [11]: Non-Toxic; fraction unbound [12]: 0.035; half-life [13]: 5.57 h; Cmax [14]: 16.4 ng/mL; Activity (Mus musculus [15]): Active; Activity (Mus musculus [16]): Active; Kp [17]: 5.4; half-life [18]: 6.99 h; AUC(0-inf) [19]: 6430 ng·h/mL; half-life [20]: 14.2 h; bioavailability [21]: 45.3%; inhibition [22]: Active; Activity [23]: Non-Toxic; half-life [24]: 23.2 h; Cmax [25]: 1.19 ng/mL; Activity [26]: Non-Toxic; IC50 (Cytochrome P450 2B6): > 30 µM; Cmax [27]: 23.5 ng/mL; Activity [28]: Non-Toxic; Activity [29]: Non-Toxic; Activity [30]: Non-Toxic; Ratio IC50 (Rattus norvegicus): 36900; IC50 (Cytochrome P450 2C19): > 30 µM; Activity [31]: Non-Toxic; AUC(0-inf) [32]: 395 ng·h/mL; Tmax [33]: 0.75 h; Activity [34]: Non-Toxic; MRT inf [35]: 23.6 h; half-life [36]: 4.17 h

Source: ChEMBL document CHEMBL4813953, “Kinetics-Driven Drug Design Strategy for Next-Generation Acetylcholinesterase Inhibitors to Clinical Candidate” (J Med Chem, 2021)
